In patent US9783488B2 (CHDI Foundation, Inc., priority 2013, dated 2017):

Key:
[1] = tested on: cellular histone deacetylase enzymatic activity in Jurkat E6-1 cells; test: Inhibition of cellular HDAC activity in Jurkat E6-1 cells, fluorogenic substrate Boc-Lys(Tfa)-AMC; type: cell-based; details: Homo sapiens, read-out: Cell IC50
Procedure, shortened: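 Jurkat E6.1 cells (75,000/well) were pre-treated with compound for 2 h at 37 °C, then given Boc-Lys(Tfa)-AMC (5× stock 500 μM) for 3 h. Cells were lysed with trypsin-containing buffer overnight, and released AMC fluorescence was read at Ex 355/Em 460 nm over a 16-point dilution series.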

[2] = biological target: human catalytic domain HDAC4 protein (amino acids 648-1032) (Homo sapiens (Human), UniProt P56524); test: Inhibition of HDAC4 catalytic domain enzymatic activity, fluorogenic substrate Boc-Lys(Tfa)-AMC; details: HDAC4 catalytic domain enzyme, read-out: Biochemical HDAC4 IC50
human catalytic domain HDAC4 protein (amino acids 648-1032), sequence (P56524 648-1032): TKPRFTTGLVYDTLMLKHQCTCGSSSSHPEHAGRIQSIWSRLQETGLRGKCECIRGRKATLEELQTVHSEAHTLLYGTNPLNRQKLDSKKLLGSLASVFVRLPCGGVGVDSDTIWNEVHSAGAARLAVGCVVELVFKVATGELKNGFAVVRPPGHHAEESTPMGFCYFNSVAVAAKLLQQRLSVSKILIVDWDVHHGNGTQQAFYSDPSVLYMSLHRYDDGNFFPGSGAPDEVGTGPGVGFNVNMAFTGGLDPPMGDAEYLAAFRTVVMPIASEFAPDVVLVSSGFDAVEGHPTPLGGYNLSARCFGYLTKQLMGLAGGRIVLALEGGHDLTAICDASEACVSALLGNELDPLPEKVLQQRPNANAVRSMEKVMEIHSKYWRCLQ

Compound | IC50 [1] [nM] | IC50 [2] [nM]
Cc1c(F)cccc1[C@]1(C(=O)NO)CC[C@@H](c2cncc(F)c2)CC1 [Example 100, (1s,4s)-1-(3-Fluoro-2-methylphenyl)-4-(5-fluoropyridin-3-yl)-N-hydroxycyclohexanecarboxamide] | 370 | 660
Cc1c(F)cccc1C1(C(=O)NO)CCCC1 [Example 18, 1-(3-fluoro-2-methylphenyl)-N-hydroxycyclopentanecarboxamide] | 1700 | 270
Cc1c(F)cccc1[C@]1(C(=O)NO)CC[C@@H](Oc2ccccc2)C1 [Example 95, (1S,3R)-1-(3-fluoro-2-methylphenyl)-N-hydroxy-3-phenoxycyclopentanecarboxamide] | 1500 | 160
N#Cc1ccccc1C1(C(=O)NO)CCCC1 [Example 27, 1-(2-Cyanophenyl)-N-hydroxycyclopentanecarboxamide] | > 50000 | > 50000
CCc1ccccc1C1(C(=O)NO)CCCC1 [Example 32, 1-(2-Ethylphenyl)-N-hydroxycyclopentanecarboxamide] | 6500 | 1100
Cc1c(F)cccc1[C@]1(C(=O)NO)CC[C@H](Oc2ccc3cnn(C)c3c2)C1 [Example 92, (1S,3S)-1-(3-Fluoro-2-methylphenyl)-N-hydroxy-3-((1-methyl-1H-indazol-6-yl)oxy)cyclopentanecarboxamide] | 470 | 140
O=C(NO)[C@@]1(c2ccccc2)CC[C@@H](c2cncc(F)c2)C1 [Example 41, (1S,3R)-3-(5-fluoropyridin-3-yl)-N-hydroxy-1-phenylcyclopentanecarboxamide] | 13000 | 1900
COc1ncc([C@H]2CC[C@@](C(=O)NO)(c3cccc(F)c3C)C2)cc1F (relative stereo) [Example 44, (1S,3S*)-1-(3-fluoro-2-methylphenyl)-3-(5-fluoro-6-methoxypyridin-3-yl)-N-hydroxycyclopentanecarboxamide] | 1700 | 330
Cc1c(F)cccc1[C@]1(C(=O)NO)CC[C@@H](c2ccc3c(c2)ncn3C)C1 (relative stereo) [Example 69, (1S,3R*)-1-(3-fluoro-2-methylphenyl)-N-hydroxy-3-(1-methyl-1H-benzo[d]imidazol-5-yl)cyclopentanecarboxamide] | 200 | 90
Cc1c(F)cccc1[C@]1(C(=O)NO)CC[C@@H](OCc2ccc(F)cc2)CC1 [Example 102, (1s,4s)-1-(3-fluoro-2-methylphenyl)-4-((4-fluorobenzyl)oxy)-N-hydroxycyclohexanecarboxamide] | 49000 | 14000

Further compounds by falling IC50 [1], results first:

IC50 [1] [nM] | IC50 [2] [nM] | Compound
2630 | 330 | Cc1c(F)cc(F)cc1C1(C(=O)NO)CCCC1 [Example 30, 1-(3,5-Difluoro-2-methylphenyl)-N-hydroxycyclopentanecarboxamide]
830 | 160 | Cc1c(F)cccc1[C@]1(C(=O)NO)CC[C@H](Oc2cncc(F)c2)C1 [Example 94, (1S,3S)-1-(3-fluoro-2-methylphenyl)-3-((5-fluoropyridin-3-yl)oxy)-N-hydroxycyclopentanecarboxamide]
810 | 360 | Cc1c(F)cccc1[C@]1(C(=O)NO)CC[C@@H](c2cccc3cnn(C)c23)C1 (relative stereo) [Example 60, (1S,3R*)-1-(3-fluoro-2-methylphenyl)-N-hydroxy-3-(1-methyl-1H-indazol-7-yl)cyclopentanecarboxamide]
660 | 240 | Cc1c(F)cccc1[C@]1(C(=O)NO)CC[C@H](OCc2ccc(F)cc2)C1 [Example 97, (1S,3S)-1-(3-fluoro-2-methylphenyl)-3-((4-fluorobenzyl)oxy)-N-hydroxycyclopentanecarboxamide]
110 | 72 | Cc1c(F)cccc1[C@]1(C(=O)NO)CC[C@@H](c2ccc3cnn(C(F)F)c3c2)C1 (relative stereo) [Example 54, (1S,3R*)-3-(1-(difluoromethyl)-1H-indazol-6-yl)-1-(3-fluoro-2-methylphenyl)-N-hydroxycyclopentanecarboxamide]
